# Test results from patent US7501384B2, “Crystalline modification of the anhydrate of boscalid” (BASF Aktiengesellschaft, priority 2003, dated 2009).
# Assay: Tank mixing compatibility: 5% suspension of water-dispersible granules in CIPAC D water mixed with 1% Solvesso 200, stored, solid residue on 75 μm sieve determined
# Type: physicochemical
# Method: Comparison of the Tank Mixing Compatibility: For this purpose, both water-dispersible granules of the above composition, comprising anhydrate of the compound of the formula I of modification I (formulation A), and water-dispersible granules of anhydrate of the compound of the formula I of modification II (formation B) were prepared. A 5% strength suspension of the respective water-dispersible granules in CIPAC D water (Ca^++/Mg^++ (4:1) hardness of 342 ppm and pH of from 6.0 to 7.0 was then prepared. This suspension was then mixed with 1% of Solvesso 200 (mixture of aromatic hydrocarbons) as a typical solvent for solvent-containing liquid formulations (e.g. EC). The corresponding spray liquor was then stored over a certain period at a certain temperature. For assessing the quality, the solid residue on a 75 μm sieve was determined after the storage.
structure (smiles),measurement,value
"O=C(Nc1ccccc1-c1ccc(Cl)cc1)c1cccnc1Cl [modification II, 2-chloro-N-(4′-chlorobiphenyl-2-yl)-nicotinamide]",crystal growth in the presence of solvents,scarcely any crystal growth
